Source: PMC4729137, “Functional analysis of androgen receptor mutations that confer anti-androgen resistance identified in circulating cell-free DNA from prostate cancer patients” (Genome Biology, 2016)
Where a chain is given by its changes, count along the chain named.

Tests used:
[1] = molecular target: T1, H875Q-AR (Homo sapiens, UniProt P10275, H875Q); type: cell-based; conditions: AR mutant H875Q; transfected PC3 cells; 0.1 nM R1881; drug 0 to 50 μM
T1 sequence (P10275 1-920 H875Q): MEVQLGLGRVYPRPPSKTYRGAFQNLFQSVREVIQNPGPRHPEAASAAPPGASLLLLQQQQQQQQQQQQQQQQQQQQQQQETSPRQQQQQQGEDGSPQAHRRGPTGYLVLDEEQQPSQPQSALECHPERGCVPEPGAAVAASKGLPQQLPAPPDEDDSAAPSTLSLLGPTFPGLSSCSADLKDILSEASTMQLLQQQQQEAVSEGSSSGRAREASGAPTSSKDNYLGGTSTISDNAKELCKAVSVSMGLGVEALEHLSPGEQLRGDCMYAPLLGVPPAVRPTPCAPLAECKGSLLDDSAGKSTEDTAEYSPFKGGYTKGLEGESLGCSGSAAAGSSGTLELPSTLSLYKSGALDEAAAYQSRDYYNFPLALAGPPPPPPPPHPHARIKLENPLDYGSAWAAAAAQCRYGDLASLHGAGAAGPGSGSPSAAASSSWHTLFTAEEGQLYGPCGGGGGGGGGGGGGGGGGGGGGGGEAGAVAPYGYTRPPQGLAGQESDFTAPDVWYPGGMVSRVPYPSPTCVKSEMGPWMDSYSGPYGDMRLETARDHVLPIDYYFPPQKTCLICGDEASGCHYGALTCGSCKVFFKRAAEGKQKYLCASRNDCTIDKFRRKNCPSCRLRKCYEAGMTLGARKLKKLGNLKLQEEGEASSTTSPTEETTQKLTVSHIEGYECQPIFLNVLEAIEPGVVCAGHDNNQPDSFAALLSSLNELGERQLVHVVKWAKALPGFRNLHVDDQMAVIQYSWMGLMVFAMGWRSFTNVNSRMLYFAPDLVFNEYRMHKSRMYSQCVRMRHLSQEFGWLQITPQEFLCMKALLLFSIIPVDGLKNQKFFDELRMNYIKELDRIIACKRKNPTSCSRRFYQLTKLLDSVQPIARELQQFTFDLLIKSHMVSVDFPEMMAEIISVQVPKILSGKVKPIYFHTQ
Source text: (§1) Full-length human AR (WT-AR) was encoded on a pcDNA3.1 expression plasmid (Life technologies). The LBD point mutations (single and multiple) were generated using the QuikChange II Site-Directed Mutagenesis Kit (Agilent Technologies) as per manufacturer’s instructions using WT-AR as the template. The mutagenic oligonucleotide primers were designed individually with the desired mutation in the middle of the primer with approximately 10 to 15 bases of correct sequence on both sides.
(§2) PC3 cells were seeded and transfected as described above. […] A non-stimulated/no R1881 control was used. After 24 h, cells were lysed and AR-dependent luciferase activity was quantified. Each concentration was assayed in quadruplicate n = 4, with a biological replicate of n = 3. Results were averaged and normalized by expressing them as a percentage of WT AR activity.

[2] = molecular target: T2, D880E-AR (Homo sapiens, UniProt P10275, D880E); type: cell-based; conditions: AR mutant D880E; transfected PC3 cells; 0.1 nM R1881; drug 0 to 50 μM
T2 sequence (P10275 1-920 D880E): T1 sequence (P10275 1-920 H875Q) with Q875H, D880E
Source text: as §1, §2

Structure (SMILES): CC(C)(O)C(=O)Nc1ccc([N+](=O)[O-])c(C(F)(F)F)c1 [Hydroxyflutamide, hydroxyflutamide]
- Agonist response to treatment [1]: Partial
- Agonist response to treatment [2]: Partial
